# Data taken from patent publication US20040116293A1, “Enhanced herbicide composition” (priority 2002, published 2004).
# Columns and labels:
# Xanthi-nc tobacco [1] = assay: Potentiation rating of Aatrex Nine-O (atrazine) herbicidal activity on Xanthi-nc tobacco relative to equimolar salicylic acid; type: in vivo, Nicotiana tabacum (tobacco); design: Potentiation Rating: key: 0 = no potentiation; 1 = potentiation less than equimolar SA; 2 = potentiation statistically equal to equimolar SA; 3 = potentiation statistically greater than equimolar SA; conditions: for Potentiation of the herbicidal activity of atrazine compared with salicylic acid (in words): tobacco
# Text: (§1) In all examples, deionized ultra-pure water was used in preparing solutions. Spray solutions were used as soon as possible after mixing.
# (§2) In all herbicide applications, plants were sprayed with a sufficient volume to insure good coverage, to the point of runoff of the spray solution. […] For all treatments containing both an herbicide and a salicylate or SAR inducer, these materials were mixed and applied in a single spray solution (commonly known as a tank mix). After spraying, plants were moved to the greenhouse and arranged in randomized complete blocks. Plants were evaluated for herbicidal effects (phytotoxicity) after spraying by assessing damage according to percent leaf area affected. All the data were subject to an analysis of variance, and the mean separations were determined with Duncan's multiple range test at α=0.05.
# Xanthi-nc tobacco [2] = assay: Herbicidal activity (phytotoxicity, percent leaf area affected) of foliar sprays on Xanthi-nc tobacco; type: in vivo, Nicotiana tabacum (tobacco); conditions: for Phytotoxicity at 4 days: percent leaf area affected: alone or + NaSA 800 ppm
# Text: as §1, §2
# [3] = salicylates, picolinates and benzoates at 2 mM with Aatrex Nine-O (atrazine)
# [4] = salicylic acid or SAR inducers with Aatrex Nine-O (atrazine), compared with equimolar SA
# [5] = acibenzolar-S-methyl 935 ppm, alone or + atrazine (Aatrex Nine-O) 100 ppm
# [6] = atrazine (Aatrex Nine-O) 100 ppm, NaSA 800 ppm, acibenzolar-S-methyl 187 ppm, alone or tank-mixed as labelled
structure (smiles),measurement,setting,value
COc1cccc(C(=O)O)c1O [3-Methoxysalicylic acid],Potentiation Rating,Xanthi-nc tobacco [1]; [3],2
same,Potentiation of the herbicidal activity of atrazine compared with salicylic acid (in words),Xanthi-nc tobacco [1],as active as salicylic acid
"O=C(O)c1cc(Cl)nc(Cl)c1 [2,6-Dichloroisonicotinic acid]",Potentiation Rating,Xanthi-nc tobacco [1]; [4],3
same,Potentiation of the herbicidal activity of atrazine compared with salicylic acid (in words),Xanthi-nc tobacco [1],greater potentiation than equimolar salicylic acid
CCOC(=O)C(C)OC(=O)c1cc(Oc2ccc(C(F)(F)F)cc2Cl)ccc1[N+](=O)[O-] (centres unmarked) [lactofen],Potentiation of the herbicidal activity of atrazine compared with salicylic acid (in words),Xanthi-nc tobacco [1],greater potentiation than equimolar salicylic acid
O=C(O)c1cccc(F)c1O [3-Fluorosalicylic acid],Potentiation Rating,Xanthi-nc tobacco [1]; [3],3
same,Potentiation of the herbicidal activity of atrazine compared with salicylic acid (in words),Xanthi-nc tobacco [1],greater potentiation than salicylic acid
"O=C(O)c1cc(Cl)cc(Cl)c1O [3,5-Dichlorosalicylic acid]",Potentiation Rating,Xanthi-nc tobacco [1]; [4],3
same,Potentiation of the herbicidal activity of atrazine compared with salicylic acid (in words),Xanthi-nc tobacco [1],greater potentiation than equimolar salicylic acid
Cc1ccc(C(=O)O)c(O)c1 [4-Methylsalicylic acid],Potentiation Rating,Xanthi-nc tobacco [1]; [3],0
same,Potentiation of the herbicidal activity of atrazine compared with salicylic acid (in words),Xanthi-nc tobacco [1],no potentiation
"CSC(=O)c1cccc2nnsc12 [Acibenzolar-S-methyl, 1,2,3-benzothiadiazole-7-carbothioic acid S-methyl ester]",Potentiation Rating,Xanthi-nc tobacco [1]; [4],3
same,Potentiation of the herbicidal activity of atrazine compared with salicylic acid (in words),Xanthi-nc tobacco [1],greater potentiation than equimolar salicylic acid
same,Phytotoxicity at 2 days: percent leaf area affected,Xanthi-nc tobacco [2]; [5],0 A percent
same,Phytotoxicity at 2 days: percent leaf area affected,Xanthi-nc tobacco [2]; [6],0 A percent
same,Phytotoxicity at 3 days: percent leaf area affected,Xanthi-nc tobacco [2]; [5],0 A percent
same,Phytotoxicity at 3 days: percent leaf area affected,Xanthi-nc tobacco [2]; [6],0 A percent
same,Phytotoxicity at 7 days: percent leaf area affected,Xanthi-nc tobacco [2]; [5],0.6 A percent
same,Phytotoxicity at 7 days: percent leaf area affected,Xanthi-nc tobacco [2]; [6],0 A percent
same,Effect of Actigard on atrazine activity (in words),Xanthi-nc tobacco [2]; tobacco,dose-dependent acceleration of atrazine activity
O=C(O)c1ccc(Cl)cc1O [4-Chlorosalicylic acid],Potentiation Rating,Xanthi-nc tobacco [1]; [4],3
same,Potentiation of the herbicidal activity of atrazine compared with salicylic acid (in words),Xanthi-nc tobacco [1],greater potentiation than equimolar salicylic acid
O=C(O)c1c(O)cccc1F [6-Fluorosalicylic acid],Potentiation Rating,Xanthi-nc tobacco [1]; [3],2
same,Potentiation of the herbicidal activity of atrazine compared with salicylic acid (in words),Xanthi-nc tobacco [1],as active as salicylic acid
"O=C(O)c1cc(F)cc(F)c1O [3,5-Difluorosalicylic acid]",Potentiation Rating,Xanthi-nc tobacco [1]; [3],3
same,Potentiation of the herbicidal activity of atrazine compared with salicylic acid (in words),Xanthi-nc tobacco [1],greater potentiation than salicylic acid
"O=C(O)c1cc(Br)cc(Br)c1O [3,5-Dibromosalicylic acid]",Potentiation Rating,Xanthi-nc tobacco [1]; [3],2
same,Potentiation of the herbicidal activity of atrazine compared with salicylic acid (in words),Xanthi-nc tobacco [1],as active as salicylic acid
O=C(O)c1cccc(Cl)c1O [3-Chlorosalicylic acid],Potentiation Rating,Xanthi-nc tobacco [1]; [3],3
same,Potentiation of the herbicidal activity of atrazine compared with salicylic acid (in words),Xanthi-nc tobacco [1],greater potentiation than salicylic acid
O=C(O)c1cc([N+](=O)[O-])ccc1O [5-Nitrosalicylic acid],Potentiation Rating,Xanthi-nc tobacco [1]; [3],2
same,Potentiation of the herbicidal activity of atrazine compared with salicylic acid (in words),Xanthi-nc tobacco [1],as active as salicylic acid
C=CCOC1=NS(=O)(=O)c2ccccc21 [Probenazole],Potentiation of the herbicidal activity of atrazine compared with salicylic acid (in words),Xanthi-nc tobacco [1],greater potentiation than equimolar salicylic acid
Cc1cccc(C(=O)O)c1O [3-Methylsalicylic acid],Potentiation Rating,Xanthi-nc tobacco [1]; [3],0
same,Potentiation of the herbicidal activity of atrazine compared with salicylic acid (in words),Xanthi-nc tobacco [1],no potentiation
"CC(C)N1C(=O)c2ccccc2NS1(=O)=O [Bentazon, 3-(1-methylethyl)-1H-2,1,3-benzothiadiazin-4(3H)-one 2,2-dioxide]",Phytotoxicity at 4 days: percent leaf area affected,Xanthi-nc tobacco [2]; bentazon (Basagran) 100 ppm,10 A percent
same,Phytotoxicity at 4 days: percent leaf area affected,Xanthi-nc tobacco [2]; bentazon (Basagran) 250 ppm,32.5 B percent
same,Phytotoxicity at 4 days: percent leaf area affected,Xanthi-nc tobacco [2]; bentazon (Basagran) 500 ppm,72.5 CD percent
O=C(O)c1cccc([N+](=O)[O-])c1O [3-Nitrosalicylic acid],Potentiation Rating,Xanthi-nc tobacco [1]; [3],2
same,Potentiation of the herbicidal activity of atrazine compared with salicylic acid (in words),Xanthi-nc tobacco [1],as active as salicylic acid
O=C(O)c1cc(F)ccc1O [5-Fluorosalicylic acid],Potentiation Rating,Xanthi-nc tobacco [1]; [3],3
same,Potentiation of the herbicidal activity of atrazine compared with salicylic acid (in words),Xanthi-nc tobacco [1],greater potentiation than salicylic acid
O=C(O)c1ncccc1O [3-Hydroxypicolinic acid],Potentiation Rating,Xanthi-nc tobacco [1]; [3],3
"O=C(O)c1ccccc1O [Salicylic acid, salicylic acid]",Potentiation Rating,Xanthi-nc tobacco [1]; [3],2
same,Potentiation Rating,Xanthi-nc tobacco [1]; [4],2
O=C(O)c1cc(Cl)ccc1O [5-Chlorosalicylic acid],Potentiation Rating,Xanthi-nc tobacco [1]; [4],3
same,Potentiation of the herbicidal activity of atrazine compared with salicylic acid (in words),Xanthi-nc tobacco [1],greater potentiation than equimolar salicylic acid
Cc1cccc(O)c1C(=O)O [6-Methylsalicylic acid],Potentiation Rating,Xanthi-nc tobacco [1]; [3],0
same,Potentiation of the herbicidal activity of atrazine compared with salicylic acid (in words),Xanthi-nc tobacco [1],no potentiation
O=C(O)c1cc(Br)ccc1O [5-Bromosalicylic acid],Potentiation Rating,Xanthi-nc tobacco [1]; [3],2
same,Potentiation of the herbicidal activity of atrazine compared with salicylic acid (in words),Xanthi-nc tobacco [1],as active as salicylic acid
Cc1ccc(O)c(C(=O)O)c1 [5-Methylsalicylic acid],Potentiation Rating,Xanthi-nc tobacco [1]; [3],0
O=C(O)c1ccc(F)cc1O [4-Fluorosalicylic acid],Potentiation Rating,Xanthi-nc tobacco [1]; [3],3
same,Potentiation of the herbicidal activity of atrazine compared with salicylic acid (in words),Xanthi-nc tobacco [1],greater potentiation than salicylic acid
O=C([O-])c1ccccc1.[Na+] [Sodium benzoate],Potentiation Rating,Xanthi-nc tobacco [1]; [3],0
same,Potentiation of the herbicidal activity of atrazine compared with salicylic acid (in words),Xanthi-nc tobacco [1],no potentiation
